One compound from patent US4461891A, “2-β-D-Ribofuranosylthiazole-4-carboxamidine compounds” (Brigham Young University, priority 1983, dated 1984) can be followed below.

Data set [1] concerns purine nucleoside phosphorylase. The experiment in a line: purine nucleoside phosphorylase (PNP-4) test: formation of [14C]-hypoxanthine from [14C]-inosine. The class given is biochemical. As to conditions: human erythrocytes as the source of enzyme; [14C]-inosine substrate. The source says: In particular, the compound, in a standard protocol, patterned after that reported in Biomedicine, 33, 39-41(1980), has been shown typically to inhibit the formation of [^14 C]-hypoxanthine from [^14 C]-inosine using human erythrocytes as the source of enzyme. […] Since T-cells play a central role in immune response, use of the compounds of the invention is contemplated for the immunoregulation of autoimmune disease Such as rheumatoid arthritis, systemic lupus erythematosus, and inflammatory bowel disease. The present invention in another preferred aspect therefore relates to compositions containing at least one compound of the invention in treating disease such as autoimmune disease characterized by abnormal immune response in warm blooded animals. According to this aspect of the invention, the properties of 2-β-D-ribofuranosylthiazole-4-carboxamidines are utilized by administering to a warm blooded animal an effective amount of a pharmaceutical composition containing as the active ingredient at least about 0.1 percent by weight, based on the total weight of the composition of at least one such compound of the invention.

Another data set deals with T-cells. The data set can be described thus: T-cell test: selective cytotoxicity in the presence of 2'-deoxyguanosine. The format is cell-based.
Another data set deals with HSB. The data set can be described thus: T-cell test with 2'-deoxyguanosine, HSB. As to conditions: with 2'-deoxyguanosine (10 micromoles), read-out: ED50 (toxic for T-lymphoblasts). The class given is cell-based.
The next data set relates to MOLT-4. The experiment in a line: T-cell test with 2'-deoxyguanosine, MOLT-4. The format is cell-based. Conditions: with 2'-deoxyguanosine (10 micromoles), read-out: ED50 (toxic for T-lymphoblasts).
In another data set the test system is CEM T-lymphoblasts. The experiment in a line: T-cell test with 2'-deoxyguanosine, CEM. The format is cell-based. Conditions: with 2'-deoxyguanosine (10 micromoles), read-out: ED50 (toxic for T-lymphoblasts).

pIC50: −log10 of the molar value.

For the compound `Cl.N=C(N)c1csc([C@@H]2O[C@H](CO)[C@@H](O)[C@H]2O)n1` [Example 1, 2-β-D-Ribofuranosylthiazole-4-Carboxamidine, hydrochloride], the “concentration at which total inhibition was achieved” value in data set [1] is “less than 300 micromoles”. The “selective cytotoxicity for T-cells” value in the data set on T-cells is on record as “selectively cytotoxic for T-cells”. The pIC50 in the data set on HSB is about 5.15; in the data set with MOLT-4, about 4.57; in the data set with CEM T-lymphoblasts it was about 4.11.
